Experimental data: publication PMC6429214, “Design, Synthesis and Biological Evaluation of Isoxazole-Based CK1 Inhibitors Modified with Chiral Pyrrolidine Scaffolds” (Molecules, 2019)

Key:
Experiment in all cases: 33PanQinase panel
Format in all cases: biochemical
[1] = target: T1, EPHA2 (Homo sapiens, UniProt P29317); details: EPHA2, 1 µM; read-out: Residual Activity (%)
T1 construct: purchased ProQinase
Experimental: (§1) Figure 5 Dendrogram representation of the selectivity profile of 29d at a concentration of 1 μM in a panel of 320 wild-type kinases (ProQinase, Freiburg, Germany). The residual kinase activity was determined compared to DMSO control. Images were generated using TREEspot Software Tool, DISCOVERX CORPORATION 2010. […]
(§2) Table S2. Selectivity profile of compound 29d. The inhibitor has been screened at a concentration of 1 µM over a panel of 320 wild-type protein kinases by ProQinase GmbH (Freiburg, Germany) using an activity-based radiometric 33PanQinase® assay. Results are presented as percentage of residual kinase activity relative to […]
(§3) control. The final DMSO concentration was 1 % in each reaction-mix. Classification of protein kinase families refers to Manning et al. (Manning, G.; Whyte, D. B.; Martinez, R.; Hunter, T.; Sudarsanam, S. The Protein Kinase Complement of the Human Genome. Science 2002, 298, 1912–1934): AGC = containing PKA, PKG, PKC families; […] = containing Cdk, MAPK, GSK3, CLK families; STE = homologs of yeast sterile 7, sterile 11, sterile 20 kinases; TK = tyrosine kinase; TKL = tyrosine kinase-like.
(§4) Kinase name Kinase family Residual Activity (%)

[2] = target: T2, PRKD2 (Homo sapiens, UniProt Q9BZL6); details: PRKD2, 1 µM; read-out: Residual Activity (%)
T2 construct: purchased ProQinase
Experimental: as §1, §2, §3, §4

[3] = target: T3, EPHA5 (Homo sapiens, UniProt P54756); details: EPHA5, 1 µM; read-out: Residual Activity (%)
T3 construct: purchased ProQinase
T3 sequence (P54756 25-1037): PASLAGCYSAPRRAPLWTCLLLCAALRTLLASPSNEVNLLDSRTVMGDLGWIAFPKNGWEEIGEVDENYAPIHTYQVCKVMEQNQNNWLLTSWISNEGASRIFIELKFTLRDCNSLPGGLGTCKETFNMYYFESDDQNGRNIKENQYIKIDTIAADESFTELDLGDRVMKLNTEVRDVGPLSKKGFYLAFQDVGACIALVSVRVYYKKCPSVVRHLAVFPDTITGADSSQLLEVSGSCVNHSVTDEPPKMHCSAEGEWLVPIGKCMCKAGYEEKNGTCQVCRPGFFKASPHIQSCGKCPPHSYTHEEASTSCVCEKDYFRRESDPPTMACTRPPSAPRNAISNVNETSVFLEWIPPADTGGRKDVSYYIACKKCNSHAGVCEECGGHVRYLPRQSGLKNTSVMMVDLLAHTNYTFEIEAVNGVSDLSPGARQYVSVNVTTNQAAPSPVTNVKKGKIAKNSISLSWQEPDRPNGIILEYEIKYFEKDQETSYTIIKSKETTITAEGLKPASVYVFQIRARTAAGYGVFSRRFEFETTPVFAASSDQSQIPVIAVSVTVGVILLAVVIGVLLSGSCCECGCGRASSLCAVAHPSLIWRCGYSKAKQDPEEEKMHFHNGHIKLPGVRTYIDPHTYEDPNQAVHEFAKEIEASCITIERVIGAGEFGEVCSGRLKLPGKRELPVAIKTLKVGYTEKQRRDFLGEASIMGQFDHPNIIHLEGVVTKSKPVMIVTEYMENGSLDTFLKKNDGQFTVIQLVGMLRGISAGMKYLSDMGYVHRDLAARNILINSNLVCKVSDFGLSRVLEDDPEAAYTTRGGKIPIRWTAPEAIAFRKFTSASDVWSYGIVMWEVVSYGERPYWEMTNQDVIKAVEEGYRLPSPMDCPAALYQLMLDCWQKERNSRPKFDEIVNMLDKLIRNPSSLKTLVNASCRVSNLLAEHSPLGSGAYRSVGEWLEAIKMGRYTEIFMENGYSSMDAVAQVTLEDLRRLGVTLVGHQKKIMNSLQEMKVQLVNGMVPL
Experimental: as §1, §2, §3, §4

[4] = target: T4, MET (Homo sapiens, UniProt P08581); details: read-out: Residual Activity (%)
T4 construct: purchased ProQinase
Experimental: as §1, §2, §3, §4

[5] = target: T5, TIE2 (Homo sapiens, UniProt Q02763); details: TIE2, 1 µM; read-out: Residual Activity (%)
T5 construct: purchased ProQinase
Experimental: as §1, §2, §3, §4

[6] = target: T6, GSG2 (Homo sapiens, UniProt Q8TF76); details: GSG2, 1 µM; read-out: Residual Activity (%)
T6 construct: purchased ProQinase
Experimental: as §1, §2, §3, §4

[7] = target: T7, LRRK2 (Homo sapiens, UniProt Q5S007); details: LRRK2, 1 µM; read-out: Residual Activity (%)
T7 construct: purchased ProQinase
Experimental: as §1, §2, §3, §4

[8] = target: T8, DYRK1B (Homo sapiens, UniProt Q9Y463); details: read-out: Residual Activity (%)
T8 construct: purchased ProQinase
Experimental: as §1, §2, §3, §4

[9] = target: T9, CLK3 (Homo sapiens, UniProt P49761); details: CLK3, 1 µM; read-out: Residual Activity (%)
T9 construct: purchased ProQinase
Experimental: as §1, §2, §3, §4

[10] = target: T10, IKK-epsilon (Homo sapiens, UniProt Q14164); details: read-out: Residual Activity (%)
T10 construct: purchased ProQinase
Experimental: as §1, §2, §3, §4

[11] = target: T11, TYRO3 (Homo sapiens, UniProt Q06418); details: TYRO3, 1 µM; read-out: Residual Activity (%)
T11 construct: purchased ProQinase
Experimental: as §1, §2, §3, §4

[12] = target: T12, DDR2 (Homo sapiens, UniProt Q16832); details: DDR2, 1 µM; read-out: Residual Activity (%)
T12 construct: purchased ProQinase
Experimental: as §1, §2, §3, §4

[13] = target: T13, Aurora-B (Homo sapiens, UniProt Q96GD4); details: read-out: Residual Activity (%)
T13 construct: purchased ProQinase
Experimental: as §1, §2, §3, §4

[14] = target: T14, TTK (Homo sapiens, UniProt P33981); details: read-out: Residual Activity (%)
T14 construct: purchased ProQinase
Experimental: as §1, §2, §3, §4

[15] = target: T15, PIM3 (Homo sapiens, UniProt Q86V86); details: PIM3, 1 µM; read-out: Residual Activity (%)
T15 construct: purchased ProQinase
Experimental: as §1, §2, §3, §4

[16] = target: T16, MYLK2 (Homo sapiens, UniProt Q9H1R3); details: MYLK2, 1 µM; read-out: Residual Activity (%)
T16 construct: purchased ProQinase
Experimental: as §1, §2, §3, §4

[17] = target: T17, PAK4 (Homo sapiens, UniProt O96013); details: PAK4, 1 µM; read-out: Residual Activity (%)
T17 construct: purchased ProQinase
Experimental: as §1, §2, §3, §4

[18] = target: T18, MAPKAPK3 (Homo sapiens, UniProt Q16644); details: MAPKAPK3, 1 µM; read-out: Residual Activity (%)
T18 construct: purchased ProQinase
T18 sequence (Q16644 whole entry): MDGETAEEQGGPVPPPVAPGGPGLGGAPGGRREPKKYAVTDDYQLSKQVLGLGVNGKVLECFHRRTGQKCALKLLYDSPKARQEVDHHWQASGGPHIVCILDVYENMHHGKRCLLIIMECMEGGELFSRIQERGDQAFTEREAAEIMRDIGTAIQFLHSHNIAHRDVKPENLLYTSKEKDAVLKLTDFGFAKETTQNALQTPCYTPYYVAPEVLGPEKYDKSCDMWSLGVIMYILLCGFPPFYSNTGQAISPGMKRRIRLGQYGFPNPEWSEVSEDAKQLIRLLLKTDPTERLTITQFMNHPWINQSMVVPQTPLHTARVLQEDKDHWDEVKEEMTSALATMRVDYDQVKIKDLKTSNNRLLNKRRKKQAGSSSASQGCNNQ
Experimental: as §1, §2, §3, §4

[19] = target: T19, ACV-R2A (Homo sapiens, UniProt P27037); details: read-out: Residual Activity (%)
T19 construct: purchased ProQinase
Experimental: as §1, §2, §3, §4

[20] = target: T20, DYRK2 (Homo sapiens, UniProt Q92630); details: DYRK2, 1 µM; read-out: Residual Activity (%)
T20 construct: purchased ProQinase
Experimental: as §1, §2, §3, §4

[21] = target: T21, TGFB-R1 (Homo sapiens, UniProt P36897); details: TGFB-R1, 1 µM; read-out: Residual Activity (%)
T21 construct: purchased ProQinase
Experimental: as §1, §2, §3, §4

[22] = target: T22, BTK (Homo sapiens, UniProt Q06187); details: read-out: Residual Activity (%)
T22 construct: purchased ProQinase
Experimental: as §1, §2, §3, §4

[23] = target: T23, PKC-delta (Homo sapiens, UniProt Q05655); details: read-out: Residual Activity (%)
T23 construct: purchased ProQinase
Experimental: as §1, §2, §3, §4

[24] = target: T24, CSK (Homo sapiens, UniProt P41240); details: read-out: Residual Activity (%)
T24 construct: purchased ProQinase
Experimental: as §1, §2, §3, §4

[25] = target: T25, HIPK3 (Homo sapiens, UniProt Q9H422); details: HIPK3, 1 µM; read-out: Residual Activity (%)
T25 construct: purchased ProQinase
T25 sequence (Q9H422 whole entry): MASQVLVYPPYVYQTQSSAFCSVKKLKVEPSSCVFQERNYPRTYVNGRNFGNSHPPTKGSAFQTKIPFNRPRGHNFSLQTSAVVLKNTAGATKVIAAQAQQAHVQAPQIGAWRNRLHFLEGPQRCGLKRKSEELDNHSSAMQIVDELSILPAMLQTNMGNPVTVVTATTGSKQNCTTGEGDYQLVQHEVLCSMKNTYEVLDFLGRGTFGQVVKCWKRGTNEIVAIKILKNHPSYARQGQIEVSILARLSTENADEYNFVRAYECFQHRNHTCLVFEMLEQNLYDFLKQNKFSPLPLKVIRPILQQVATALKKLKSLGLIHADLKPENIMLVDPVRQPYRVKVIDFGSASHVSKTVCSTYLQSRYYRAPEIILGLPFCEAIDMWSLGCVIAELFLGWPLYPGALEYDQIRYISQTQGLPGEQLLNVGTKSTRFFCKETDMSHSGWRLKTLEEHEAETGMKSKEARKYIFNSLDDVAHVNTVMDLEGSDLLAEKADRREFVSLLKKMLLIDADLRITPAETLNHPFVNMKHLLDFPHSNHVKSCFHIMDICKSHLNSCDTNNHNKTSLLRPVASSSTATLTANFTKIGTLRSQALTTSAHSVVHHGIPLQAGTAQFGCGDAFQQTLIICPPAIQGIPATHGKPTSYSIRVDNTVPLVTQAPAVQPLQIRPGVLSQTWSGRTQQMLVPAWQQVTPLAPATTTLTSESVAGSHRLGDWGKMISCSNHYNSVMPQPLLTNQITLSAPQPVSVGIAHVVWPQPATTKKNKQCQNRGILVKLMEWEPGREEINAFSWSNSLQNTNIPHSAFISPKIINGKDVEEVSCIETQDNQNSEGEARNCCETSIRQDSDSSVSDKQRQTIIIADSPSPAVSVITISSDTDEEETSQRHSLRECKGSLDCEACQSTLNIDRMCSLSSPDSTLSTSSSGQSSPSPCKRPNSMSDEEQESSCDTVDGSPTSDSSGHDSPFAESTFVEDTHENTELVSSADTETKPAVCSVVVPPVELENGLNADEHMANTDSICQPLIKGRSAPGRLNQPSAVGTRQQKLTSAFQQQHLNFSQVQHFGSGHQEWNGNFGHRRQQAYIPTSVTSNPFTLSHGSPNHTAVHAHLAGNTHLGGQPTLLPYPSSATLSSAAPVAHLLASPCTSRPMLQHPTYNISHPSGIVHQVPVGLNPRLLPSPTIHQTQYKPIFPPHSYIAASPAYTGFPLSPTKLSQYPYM
Experimental: as §1, §2, §3, §4

[26] = target: T26, RPS6KA3 (Homo sapiens, UniProt P51812); details: RPS6KA3, 1 µM; read-out: Residual Activity (%)
T26 construct: purchased ProQinase
Experimental: as §1, §2, §3, §4

[27] = target: T27, PDK1 (Homo sapiens, UniProt O15530); details: PDK1, 1 µM; read-out: Residual Activity (%)
T27 construct: purchased ProQinase
T27 sequence (O15530 whole entry): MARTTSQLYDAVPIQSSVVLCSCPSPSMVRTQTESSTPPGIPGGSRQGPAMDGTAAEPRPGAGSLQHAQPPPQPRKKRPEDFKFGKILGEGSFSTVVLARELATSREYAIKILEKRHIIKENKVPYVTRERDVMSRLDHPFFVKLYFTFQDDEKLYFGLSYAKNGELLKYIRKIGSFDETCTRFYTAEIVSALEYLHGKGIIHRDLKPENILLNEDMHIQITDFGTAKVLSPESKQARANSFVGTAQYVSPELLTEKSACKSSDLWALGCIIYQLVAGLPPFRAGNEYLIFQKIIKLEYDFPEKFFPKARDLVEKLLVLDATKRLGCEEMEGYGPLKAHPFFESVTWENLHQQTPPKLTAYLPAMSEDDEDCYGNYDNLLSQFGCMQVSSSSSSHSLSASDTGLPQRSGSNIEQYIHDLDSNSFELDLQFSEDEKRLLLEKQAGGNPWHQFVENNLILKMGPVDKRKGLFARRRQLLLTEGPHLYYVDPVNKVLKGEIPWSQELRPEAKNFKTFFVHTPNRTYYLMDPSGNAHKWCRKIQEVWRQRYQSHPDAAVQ
Experimental: as §1, §2, §3, §4

[28] = target: T28, TBK1 (Homo sapiens, UniProt Q9UHD2); details: TBK1, 1 µM; read-out: Residual Activity (%)
T28 construct: purchased ProQinase
Experimental: as §1, §2, §3, §4

[29] = target: T29, EEF2K (Homo sapiens, UniProt O00418); details: read-out: Residual Activity (%)
T29 construct: purchased ProQinase
Experimental: as §1, §2, §3, §4

[30] = target: T30, CAMK4 (Homo sapiens, UniProt Q16566); details: CAMK4, 1 µM; read-out: Residual Activity (%)
T30 construct: purchased ProQinase
T30 sequence (Q16566 whole entry): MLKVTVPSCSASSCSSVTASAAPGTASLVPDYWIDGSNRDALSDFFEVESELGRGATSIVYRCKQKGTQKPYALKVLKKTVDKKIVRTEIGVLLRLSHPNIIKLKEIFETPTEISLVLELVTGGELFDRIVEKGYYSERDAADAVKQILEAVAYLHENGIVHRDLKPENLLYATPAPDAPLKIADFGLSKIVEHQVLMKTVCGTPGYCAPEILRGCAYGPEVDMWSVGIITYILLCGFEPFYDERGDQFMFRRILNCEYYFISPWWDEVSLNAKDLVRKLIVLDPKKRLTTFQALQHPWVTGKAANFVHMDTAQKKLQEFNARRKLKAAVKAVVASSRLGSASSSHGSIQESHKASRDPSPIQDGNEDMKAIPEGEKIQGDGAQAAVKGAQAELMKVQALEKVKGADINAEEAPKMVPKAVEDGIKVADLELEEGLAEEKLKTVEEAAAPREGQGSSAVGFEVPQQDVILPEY
Experimental: as §1, §2, §3, §4

T1 sequence (P29317 24-976): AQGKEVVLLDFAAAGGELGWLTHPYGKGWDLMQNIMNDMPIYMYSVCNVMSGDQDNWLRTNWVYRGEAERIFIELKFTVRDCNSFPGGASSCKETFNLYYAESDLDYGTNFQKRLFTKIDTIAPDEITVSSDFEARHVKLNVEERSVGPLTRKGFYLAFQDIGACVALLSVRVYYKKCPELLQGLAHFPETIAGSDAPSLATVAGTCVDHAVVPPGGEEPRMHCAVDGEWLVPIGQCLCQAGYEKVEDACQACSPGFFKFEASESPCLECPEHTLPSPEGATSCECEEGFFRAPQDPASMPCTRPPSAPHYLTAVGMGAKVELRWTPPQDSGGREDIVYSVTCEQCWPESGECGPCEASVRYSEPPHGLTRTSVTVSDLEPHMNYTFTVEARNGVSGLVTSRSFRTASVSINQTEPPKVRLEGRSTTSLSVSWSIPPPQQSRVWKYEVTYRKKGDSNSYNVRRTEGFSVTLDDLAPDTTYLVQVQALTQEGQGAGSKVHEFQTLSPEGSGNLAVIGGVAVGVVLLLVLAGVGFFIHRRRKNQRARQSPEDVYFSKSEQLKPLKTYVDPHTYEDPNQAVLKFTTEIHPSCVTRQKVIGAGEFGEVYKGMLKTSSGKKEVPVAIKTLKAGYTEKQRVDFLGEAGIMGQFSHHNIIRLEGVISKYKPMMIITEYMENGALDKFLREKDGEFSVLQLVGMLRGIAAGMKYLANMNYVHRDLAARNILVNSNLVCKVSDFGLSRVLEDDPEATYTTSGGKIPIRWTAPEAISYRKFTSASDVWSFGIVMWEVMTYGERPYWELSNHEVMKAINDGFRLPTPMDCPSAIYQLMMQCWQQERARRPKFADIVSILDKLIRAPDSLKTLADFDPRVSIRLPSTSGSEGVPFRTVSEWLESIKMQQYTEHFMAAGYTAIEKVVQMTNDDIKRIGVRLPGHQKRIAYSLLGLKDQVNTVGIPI

For `COc1ccc(-c2cc(C(=O)Nc3cc(-c4c(-c5ccc(F)cc5)noc4C(C)C)ccn3)n(CC3NCC(O)C3O)c2)cc1` (stereo not drawn) [29d], the remaining activity at 1 µM [1] was 103%, the remaining activity at 1 µM [2] was 110% and the remaining activity at 1 µM [3] was 103%. It also gave a remaining activity at 1 µM [4] of 89%, a remaining activity at 1 µM [5] of 110% and a remaining activity at 1 µM [6] of 91%. It also gave a remaining activity at 1 µM [7] of 100%, a remaining activity at 1 µM [8] of 104% and a remaining activity at 1 µM [9] of 92%. It also gave a remaining activity at 1 µM [10] of 94%, a remaining activity at 1 µM [11] of 115% and a remaining activity at 1 µM [12] of 95%. The remaining activity at 1 µM [13] was 96%, the remaining activity at 1 µM [14] was 100% and the remaining activity at 1 µM [15] was 98%. The remaining activity at 1 µM [16] was 97%, the remaining activity at 1 µM [17] was 92% and the remaining activity at 1 µM [18] was 91%. For the same molecule, the remaining activity at 1 µM [19] was 125%, the remaining activity at 1 µM [20] was 96% and the remaining activity at 1 µM [21] was 102%. For the same molecule, the remaining activity at 1 µM [22] was 112%, the remaining activity at 1 µM [23] was 100% and the remaining activity at 1 µM [24] was 115%. The remaining activity at 1 µM [25] was 109%, the remaining activity at 1 µM [26] was 107% and the remaining activity at 1 µM [27] was 93%. The remaining activity at 1 µM [28] was 113%, the remaining activity at 1 µM [29] was 99% and the remaining activity at 1 µM [30] was 102%.
